Assay results: ChEMBL document CHEMBL1152527, “Tessaric acid derivatives induce G2/M cell cycle arrest in human solid tumor cell lines” (2009)

How the values were obtained:
Assay type in all cases: functional
HBL-100 = experiment: Growth inhibition of human HBL100 cells after 48 hrs by sulforhodamine B assay; settings: HBL-100, 48 h; for GI50: read-out: GI50
HeLa = experiment: Growth inhibition of human HeLa cells after 48 hrs by sulforhodamine B assay; settings: for GI50: read-out: GI50
WiDr = experiment: Growth inhibition of human WiDr cells after 48 hrs by sulforhodamine B assay; settings: for GI50: read-out: GI50
A2780 = experiment: Growth inhibition of human A2780 cells after 48 hrs by sulforhodamine B assay; settings: A2780, 48 h; for GI50: read-out: GI50
T47D = experiment: Growth inhibition of human T47D cells after 48 hrs by sulforhodamine B assay; settings: for GI50: read-out: GI50
SW1573 = experiment: Growth inhibition of human SW1573 cells after 48 hrs by sulforhodamine B assay; settings: SW1573, 48 h; for GI50: read-out: GI50

Row | Compound | GI50 (HBL-100) [µM] | GI50 (HeLa) [µM] | GI50 (WiDr) [µM] | GI50 (A2780) [µM] | GI50 (T47D) [µM] | GI50 (SW1573) [µM] | pGI50 (HBL-100) | pGI50 (HeLa) | pGI50 (WiDr) | pGI50 (A2780) | pGI50 (T47D) | pGI50 (SW1573)
1 | O=c1[nH]cc(F)c(=O)[nH]1 [FLUOROURACIL] | 5.5 | 19 | 50 | 4.4 | 29 | 4.1 |  |  |  |  |  | 
2 | C=C(C(=O)OC)[C@@H]1CC[C@@]2(C)CCC[C@@](C)(O)[C@@H]2C1 [VACHANIC ACID METHYLESTER] | 74 | > 100 | > 100 | > 100 | > 100 | > 100 | 4.13 | 4 | 4 | 4 | 4 | 4
3 | C=C(C(=O)O)[C@@H]1CC[C@@]2(C)CCCC(C)=C2C1 | > 100 | > 100 | > 100 | > 100 | > 100 | > 100 | 4 | 4 | 4 | 4 | 4 | 4
4 | C=C(C(=O)O)[C@@H]1CCC2=CC(=O)C[C@H](C)[C@@]2(C)C1 [TESSARIC ACID] | > 100 | > 100 | > 100 | > 100 | > 100 | > 100 | 4 | 4 | 4 | 4 | 4 | 4
5 | CC[C@@]1(O)C(=O)OCc2c1cc1n(c2=O)Cc2cc3ccccc3nc2-1 [CAMPTOTHECIN] | 0.23 | 1.3 | 1.7 | 0.46 | 1.9 | 0.21 |  |  |  |  |  | 
